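Grown in 96-well plates, cells were treated for 48 hours with each compound at five concentrations. Insufficient inhibition: endpoint recorded as highest concentration tested. The concentration for 50% growth inhibition is given as GI50. TGI: concentration producing complete growth inhibition.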

The text below walks through data of PubChem BioAssay (NCI).

Test systems include NCI-H226 lung; U251 CNS; OVCAR-3 ovarian; UACC-257 melanoma; CCRF-CEM leukemia; HCT-15 colon; ACHN renal; SW-620 colon; KM12 colon; MDA-MB-231 breast.
Holding throughout (test): growth of human tumour cells (NCI), 48 h

Consider `CCCCCCCCCCCCCCCCc1c(C(=O)OC)nc(NC#N)[nH]c1=O`, for which the TGI in the assay with NCI-H226 lung, in the assay on U251 CNS, with OVCAR-3 ovarian, with UACC-257 melanoma, in the assay with CCRF-CEM leukemia and in the assay on HCT-15 colon was > 25 µM throughout. For the same compound, the TGI in the assay with ACHN renal, in the assay with SW-620 colon and with KM12 colon was > 25 µM in each case.
Regarding `COC(=O)/C=C1\CCC2[C@@H](C(=O)CC3[C@]2(C)CCC[C@@]3(C)C(=O)OC)C1C` (stereo not given in full), the TGI with NCI-H226 lung was 56.6 µM; in the assay on U251 CNS, > 100 µM; in the assay on OVCAR-3 ovarian, 89 µM; with UACC-257 melanoma, 33.9 µM; in the assay with CCRF-CEM leukemia, 38.1 µM; with HCT-15 colon, > 100 µM. The TGI worked out at 63.9 µM in the assay with ACHN renal, 64.1 µM with SW-620 colon and 42.6 µM with KM12 colon.
With `CCOC(=O)C1CC(=O)C=C2CCCCC21` (stereo not given), the TGI with U251 CNS, in the assay with OVCAR-3 ovarian, in the assay with UACC-257 melanoma, with CCRF-CEM leukemia, with HCT-15 colon and in the assay with ACHN renal was > 100 µM throughout. For the same compound, the TGI with SW-620 colon and with KM12 colon was > 100 µM throughout.
`CCOC(=O)NC(=O)c1cn(CCSCCOC(=O)NCCCCCCNC(=O)OCCSCCn2cc(C(=O)NC(=O)OCC)c(=O)n(C)c2=O)c(=O)n(C)c1=O`: the TGI in the assay on NCI-H226 lung is 73.8 µM; with U251 CNS, 40.3 µM; in the assay with OVCAR-3 ovarian it was > 100 µM; with UACC-257 melanoma, > 100 µM; in the assay on CCRF-CEM leukemia, > 100 µM; in the assay on HCT-15 colon it was > 100 µM. In addition, the TGI with ACHN renal and in the assay with SW-620 colon was > 100 µM in each case.
Regarding `Cn1cnc([N+](=O)[O-])c1Sc1n[nH]c(-c2ccc(Cl)cc2)n1`, the TGI was 34.5 µM with NCI-H226 lung; 48.9 µM with U251 CNS; 40.4 µM in the assay with OVCAR-3 ovarian; 39.6 µM in the assay on UACC-257 melanoma; 39.6 µM in the assay on CCRF-CEM leukemia; 41.7 µM in the assay with ACHN renal. The TGI in the assay on SW-620 colon turned out to be 78 µM; in the assay with KM12 colon, 39.2 µM.
As for `COc1ccc(O)c(/C=N\Nc2ccccc2)c1`, the TGI in the assay on NCI-H226 lung, with U251 CNS, with MDA-MB-231 breast, in the assay with UACC-257 melanoma, with HCT-15 colon and in the assay with ACHN renal was > 100 µM in each case. For the same compound, the TGI in the assay on SW-620 colon amounted to 22.6 µM.
As for `N#CC(Sc1ccccc1)C(N)=O` (stereo not given), the TGI with NCI-H226 lung, in the assay with U251 CNS, in the assay on OVCAR-3 ovarian, in the assay with UACC-257 melanoma, with CCRF-CEM leukemia and with HCT-15 colon was > 100 µM each time. Further, the TGI with SW-620 colon and in the assay with KM12 colon was > 100 µM in each case.
With `COC(=O)c1c2c(c(C)[n+]([O-])c1C)C(=O)C(NCc1ccccc1)=CC2=O`, the GI50 with NCI-H226 lung is 2.81 µM; with U251 CNS, 2.46 µM; with OVCAR-3 ovarian it was 0.613 µM; in the assay with UACC-257 melanoma, 1.7 µM; in the assay with CCRF-CEM leukemia, 2.98 µM; in the assay on HCT-15 colon, 1.7 µM. Besides, the results for the GI50 in the assay on ACHN renal, with SW-620 colon and in the assay with KM12 colon were 2.73 µM, 3.12 µM and 2.4 µM, respectively. The TGI with NCI-H226 lung came to 9.9 µM; in the assay on U251 CNS, 7.11 µM; with OVCAR-3 ovarian, 3.67 µM; in the assay on UACC-257 melanoma, 4.02 µM; in the assay with CCRF-CEM leukemia, 22.3 µM; in the assay on HCT-15 colon, 4.44 µM. Further, the figures for the TGI in the assay on ACHN renal, in the assay with SW-620 colon and in the assay on KM12 colon were 10.1 µM, 10.6 µM and 9.6 µM, respectively.
As for `O=S1Nc2cccc(C(F)(F)F)c2S1` (stereo not given), the TGI was > 100 µM in the assay on NCI-H226 lung; > 100 µM in the assay with U251 CNS; > 100 µM with OVCAR-3 ovarian; > 100 µM with UACC-257 melanoma; 29.3 µM in the assay on CCRF-CEM leukemia; 43 µM in the assay with HCT-15 colon. The TGI in the assay with ACHN renal was > 100 µM; in the assay on SW-620 colon, 23.8 µM; in the assay with KM12 colon it was 59.9 µM.
As to `c1cc[c]([Ge]([O]c2cccc3cccnc23)([c]2ccccc2)[c]2ccccc2)cc1`, the GI50 with NCI-H226 lung was 6.33 µM; with U251 CNS, 3.83 µM; with OVCAR-3 ovarian, 2.55 µM; in the assay on UACC-257 melanoma, 3.94 µM; in the assay on HCT-15 colon, 3.56 µM; in the assay on ACHN renal, 8.83 µM. Besides, the GI50 in the assay with SW-620 colon is 3.02 µM; in the assay with KM12 colon, 1.95 µM. Besides, the TGI with NCI-H226 lung came out at 23 µM; in the assay with U251 CNS it was 13.4 µM; with OVCAR-3 ovarian, 6.82 µM; in the assay with UACC-257 melanoma, 14.5 µM; in the assay with HCT-15 colon, 12.4 µM; in the assay with ACHN renal, 20.8 µM. For the same compound, the TGI with SW-620 colon was found to be 7.46 µM; in the assay with KM12 colon, 5.09 µM.
For the compound `O=C(O)c1cnc2c(ccc3[nH]cccc32)c1=O`, the TGI in the assay with U251 CNS, with OVCAR-3 ovarian, in the assay with CCRF-CEM leukemia, in the assay with HCT-15 colon, with ACHN renal and in the assay on SW-620 colon was > 100 µM throughout. Also, the TGI in the assay with KM12 colon was > 100 µM.
Regarding `COC(=O)[C@H](Cc1cn(C)cn1)NC(=O)[C@H](CC(C)C)NC(=O)Nc1cc(C(F)(F)F)cc(C(F)(F)F)c1`, the GI50 in the assay with NCI-H226 lung was > 10 µM; in the assay on U251 CNS, > 10 µM; with MDA-MB-231 breast, 4.64 µM; in the assay with OVCAR-3 ovarian, 2.23 µM; in the assay with HCT-15 colon it was > 10 µM; with ACHN renal, > 10 µM. Also, the results for the GI50 in the assay on SW-620 colon and with KM12 colon were 5.28 µM and > 10 µM, respectively. Also, the TGI in the assay with NCI-H226 lung is > 10 µM; in the assay with U251 CNS, > 10 µM; in the assay on MDA-MB-231 breast, > 10 µM; in the assay with OVCAR-3 ovarian it was 4.82 µM; in the assay with HCT-15 colon, > 10 µM; with ACHN renal, > 10 µM. The TGI in the assay with SW-620 colon and in the assay with KM12 colon was > 10 µM in each case.
Turning to `COc1ccc2cc3c4cc(OC)c(OC)cc4ccn3c2c1`, the TGI in the assay with NCI-H226 lung, in the assay with U251 CNS, with UACC-257 melanoma, with CCRF-CEM leukemia, with ACHN renal and in the assay with SW-620 colon was > 100 µM each time. In addition, the TGI in the assay on KM12 colon is > 100 µM.
